Measured values published in PubChem BioAssay (NCI).
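Each compound was tested at five concentrations against cells in 96-well plates for 48 hours. TGI: concentration producing complete growth inhibition.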

Assays:
Assay in all cases: DTP human tumour cell line panel, 48 h
NCI-H522 lung = test system: NCI-H522 lung
CAKI-1 renal = test system: CAKI-1 renal
A549 NSCLC = test system: A549 NSCLC
LOX IMVI melanoma = test system: LOX IMVI melanoma
LXFL 529 NSCLC = test system: LXFL 529 NSCLC
UACC-62 melanoma = test system: UACC-62 melanoma
ACHN renal = test system: ACHN renal
EKVX NSCLC = test system: EKVX NSCLC
IGROV1 ovarian = test system: IGROV1 ovarian
RPMI-8226 leukemia = test system: RPMI-8226 leukemia
HCT-116 colon = test system: HCT-116 colon
SF-295 CNS = test system: SF-295 CNS
HL-60(TB) leukemia = test system: HL-60(TB) leukemia
DLD-1 colon = test system: DLD-1 colon
NCI-H460 lung = test system: NCI-H460 lung
HOP-18 NSCLC = test system: HOP-18 NSCLC
786-0 renal = test system: 786-0 renal
CCRF-CEM leukemia = test system: CCRF-CEM leukemia
A498 renal = test system: A498 renal
RXF 393 renal = test system: RXF 393 renal
SN12C renal = test system: SN12C renal
SK-MEL-28 melanoma = test system: SK-MEL-28 melanoma
TK-10 renal = test system: TK-10 renal
COLO 205 colon = test system: COLO 205 colon
DMS 114 small cell lung = test system: DMS 114 small cell lung
M14 melanoma = test system: M14 melanoma
UO-31 renal = test system: UO-31 renal
U251 CNS = test system: U251 CNS
NCI-H23 lung = test system: NCI-H23 lung
HOP-92 NSCLC = test system: HOP-92 NSCLC
OVCAR-8 ovarian = test system: OVCAR-8 ovarian
KM20L2 colon = test system: KM20L2 colon
K-562 leukemia = test system: K-562 leukemia
HCT-15 colon = test system: HCT-15 colon
SK-MEL-5 melanoma = test system: SK-MEL-5 melanoma
M19-MEL melanoma = test system: M19-MEL melanoma
MOLT-4 leukemia = test system: MOLT-4 leukemia
SW-620 colon = test system: SW-620 colon
DMS 273 small cell lung = test system: DMS 273 small cell lung
SF-539 CNS = test system: SF-539 CNS
SK-OV-3 ovarian = test system: SK-OV-3 ovarian
SF-268 CNS = test system: SF-268 CNS
KM12 colon = test system: KM12 colon
SNB-78 CNS = test system: SNB-78 CNS
SK-MEL-2 melanoma = test system: SK-MEL-2 melanoma
OVCAR-4 ovarian = test system: OVCAR-4 ovarian
SNB-19 CNS = test system: SNB-19 CNS
MALME-3M melanoma = test system: MALME-3M melanoma
HT29 colon = test system: HT29 colon
SNB-75 CNS = test system: SNB-75 CNS
UACC-257 melanoma = test system: UACC-257 melanoma
OVCAR-3 ovarian = test system: OVCAR-3 ovarian
SR leukemia = test system: SR leukemia
HCC-2998 colon = test system: HCC-2998 colon
HOP-62 NSCLC = test system: HOP-62 NSCLC
OVCAR-5 ovarian = test system: OVCAR-5 ovarian

Structure (SMILES): Cc1ccc(O)c(N=Nc2ccc(S(=O)(=O)O)cc2)n1
- TGI (NCI-H522 lung): > 100 µM
- TGI (CAKI-1 renal): > 100 µM
- TGI (A549 NSCLC): > 100 µM
- TGI (LOX IMVI melanoma): > 100 µM
- TGI (LXFL 529 NSCLC): > 100 µM
- TGI (UACC-62 melanoma): > 100 µM
- TGI (ACHN renal): > 100 µM
- TGI (EKVX NSCLC): 47.9 µM
- TGI (IGROV1 ovarian): > 100 µM
- TGI (RPMI-8226 leukemia): > 100 µM
- TGI (HCT-116 colon): > 100 µM
- TGI (SF-295 CNS): > 100 µM
- TGI (HL-60(TB) leukemia): > 100 µM
- TGI (DLD-1 colon): > 100 µM
- TGI (NCI-H460 lung): > 100 µM
- TGI (HOP-18 NSCLC): > 100 µM
- TGI (786-0 renal): > 100 µM
- TGI (CCRF-CEM leukemia): > 100 µM
- TGI (A498 renal): > 100 µM
- TGI (RXF 393 renal): > 100 µM
- TGI (SN12C renal): > 100 µM
- TGI (SK-MEL-28 melanoma): > 100 µM
- TGI (TK-10 renal): > 100 µM
- TGI (COLO 205 colon): > 100 µM
- TGI (DMS 114 small cell lung): > 100 µM
- TGI (M14 melanoma): > 100 µM
- TGI (UO-31 renal): > 100 µM
- TGI (U251 CNS): > 100 µM
- TGI (NCI-H23 lung): > 100 µM
- TGI (HOP-92 NSCLC): > 100 µM
- TGI (OVCAR-8 ovarian): > 100 µM
- TGI (KM20L2 colon): > 100 µM
- TGI (K-562 leukemia): > 100 µM
- TGI (HCT-15 colon): > 100 µM
- TGI (SK-MEL-5 melanoma): > 100 µM
- TGI (M19-MEL melanoma): > 100 µM
- TGI (MOLT-4 leukemia): > 100 µM
- TGI (SW-620 colon): > 100 µM
- TGI (DMS 273 small cell lung): > 100 µM
- TGI (SF-539 CNS): > 100 µM
- TGI (SK-OV-3 ovarian): > 100 µM
- TGI (SF-268 CNS): > 100 µM

Structure (SMILES): Cc1noc(C)c1C1=CCCCc2ccccc21
- TGI (NCI-H522 lung): > 100 µM
- TGI (A549 NSCLC): > 100 µM
- TGI (LXFL 529 NSCLC): > 100 µM
- TGI (UACC-62 melanoma): > 100 µM
- TGI (ACHN renal): > 100 µM
- TGI (KM12 colon): > 100 µM
- TGI (EKVX NSCLC): > 100 µM
- TGI (IGROV1 ovarian): > 100 µM
- TGI (RPMI-8226 leukemia): > 100 µM
- TGI (HCT-116 colon): > 100 µM
- TGI (SF-295 CNS): > 100 µM
- TGI (HL-60(TB) leukemia): 62.7 µM
- TGI (DLD-1 colon): > 100 µM
- TGI (NCI-H460 lung): > 100 µM
- TGI (HOP-18 NSCLC): > 100 µM
- TGI (786-0 renal): > 100 µM
- TGI (CCRF-CEM leukemia): > 100 µM
- TGI (RXF 393 renal): > 100 µM
- TGI (SN12C renal): > 100 µM
- TGI (SK-MEL-28 melanoma): > 100 µM
- TGI (COLO 205 colon): > 100 µM
- TGI (DMS 114 small cell lung): > 100 µM
- TGI (M14 melanoma): > 100 µM
- TGI (SNB-78 CNS): > 100 µM
- TGI (UO-31 renal): > 100 µM
- TGI (U251 CNS): > 100 µM
- TGI (NCI-H23 lung): > 100 µM
- TGI (SK-MEL-2 melanoma): > 100 µM
- TGI (HOP-92 NSCLC): 85.1 µM
- TGI (OVCAR-8 ovarian): > 100 µM
- TGI (OVCAR-4 ovarian): > 100 µM
- TGI (KM20L2 colon): > 100 µM
- TGI (K-562 leukemia): > 100 µM
- TGI (HCT-15 colon): > 100 µM
- TGI (SNB-19 CNS): > 100 µM
- TGI (SK-MEL-5 melanoma): > 100 µM
- TGI (M19-MEL melanoma): > 100 µM
- TGI (MALME-3M melanoma): > 100 µM
- TGI (HT29 colon): > 100 µM
- TGI (MOLT-4 leukemia): > 100 µM
- TGI (SW-620 colon): > 100 µM
- TGI (SNB-75 CNS): 88.2 µM
- TGI (UACC-257 melanoma): > 100 µM
- TGI (DMS 273 small cell lung): > 100 µM
- TGI (OVCAR-3 ovarian): > 100 µM
- TGI (SF-539 CNS): > 100 µM
- TGI (SR leukemia): 74.9 µM
- TGI (SK-OV-3 ovarian): > 100 µM
- TGI (HCC-2998 colon): > 100 µM
- TGI (SF-268 CNS): > 100 µM
- TGI (HOP-62 NSCLC): > 100 µM
- TGI (OVCAR-5 ovarian): > 100 µM

Structure (SMILES): COc1ccc(/C=C/C(=O)c2sc(NC(=S)NC(=O)c3ccccc3F)nc2C)cc1OC
- TGI (NCI-H522 lung): 63.9 µM
- TGI (CAKI-1 renal): > 100 µM
- TGI (A549 NSCLC): > 100 µM
- TGI (LOX IMVI melanoma): > 100 µM
- TGI (UACC-62 melanoma): > 100 µM
- TGI (ACHN renal): > 100 µM
- TGI (KM12 colon): > 100 µM
- TGI (EKVX NSCLC): > 100 µM
- TGI (IGROV1 ovarian): > 100 µM
- TGI (RPMI-8226 leukemia): > 100 µM
- TGI (SF-295 CNS): > 100 µM
- TGI (HL-60(TB) leukemia): > 100 µM
- TGI (DLD-1 colon): > 100 µM
- TGI (NCI-H460 lung): > 100 µM
- TGI (HOP-18 NSCLC): > 100 µM
- TGI (786-0 renal): > 100 µM
- TGI (CCRF-CEM leukemia): > 100 µM
- TGI (A498 renal): > 100 µM
- TGI (RXF 393 renal): > 100 µM
- TGI (SN12C renal): > 100 µM
- TGI (SK-MEL-28 melanoma): > 100 µM
- TGI (TK-10 renal): > 100 µM
- TGI (COLO 205 colon): > 100 µM
- TGI (DMS 114 small cell lung): > 100 µM
- TGI (SNB-78 CNS): > 100 µM
- TGI (UO-31 renal): > 100 µM
- TGI (U251 CNS): > 100 µM
- TGI (NCI-H23 lung): > 100 µM
- TGI (SK-MEL-2 melanoma): > 100 µM
- TGI (HOP-92 NSCLC): > 100 µM
- TGI (OVCAR-8 ovarian): > 100 µM
- TGI (KM20L2 colon): > 100 µM
- TGI (K-562 leukemia): > 100 µM
- TGI (HCT-15 colon): > 100 µM
- TGI (SNB-19 CNS): > 100 µM
- TGI (SK-MEL-5 melanoma): > 100 µM
- TGI (M19-MEL melanoma): > 100 µM
- TGI (MALME-3M melanoma): > 100 µM
- TGI (MOLT-4 leukemia): > 100 µM
- TGI (SW-620 colon): > 100 µM
- TGI (SNB-75 CNS): > 100 µM
- TGI (DMS 273 small cell lung): > 100 µM
- TGI (OVCAR-3 ovarian): > 100 µM
- TGI (SF-539 CNS): > 100 µM
- TGI (SK-OV-3 ovarian): > 100 µM
- TGI (HCC-2998 colon): > 100 µM
- TGI (SF-268 CNS): > 100 µM
- TGI (HOP-62 NSCLC): > 100 µM
- TGI (OVCAR-5 ovarian): > 100 µM
